Values after ≈ are worked out from the molar mass of the structure shown.
Columns and labels:
[1] = biological target: T1, fibrin gels (40 mg/mL fibrinogen, 33 U/mL thrombin) (Homo sapiens, UniProt P02671+P02675+P02679); experiment: Rheometry gelation time, polymerization time and shear modulus, higher fibrinogen concentration fibrin gels; assay type: biochemical; conditions: 0.12% w/v dye, n=3; for final shear modulus (g′): strain sweep after 2 hour time sweep
T1 construct: purchased Ethicon (Evicel)
T1 sequence (P02671 20-644 isoform P02671-2 limits assumed): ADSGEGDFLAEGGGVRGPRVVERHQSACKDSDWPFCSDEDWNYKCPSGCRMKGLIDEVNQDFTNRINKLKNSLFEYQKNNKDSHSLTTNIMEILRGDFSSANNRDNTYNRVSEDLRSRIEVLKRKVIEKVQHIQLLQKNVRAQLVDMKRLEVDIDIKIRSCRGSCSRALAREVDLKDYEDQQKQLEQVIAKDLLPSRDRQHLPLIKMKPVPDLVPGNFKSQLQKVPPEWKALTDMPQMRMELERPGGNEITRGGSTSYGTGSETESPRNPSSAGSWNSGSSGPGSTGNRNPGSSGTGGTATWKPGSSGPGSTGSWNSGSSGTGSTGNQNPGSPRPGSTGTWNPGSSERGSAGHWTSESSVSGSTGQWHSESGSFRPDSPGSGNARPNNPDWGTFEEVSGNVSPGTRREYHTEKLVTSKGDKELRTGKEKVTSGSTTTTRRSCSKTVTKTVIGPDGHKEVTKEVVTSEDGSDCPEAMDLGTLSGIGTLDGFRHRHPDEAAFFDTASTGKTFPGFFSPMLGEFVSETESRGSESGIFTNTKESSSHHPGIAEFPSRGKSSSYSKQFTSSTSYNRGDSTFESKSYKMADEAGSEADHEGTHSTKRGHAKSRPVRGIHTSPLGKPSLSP
T1 sequence (P02675 45-491 limits assumed): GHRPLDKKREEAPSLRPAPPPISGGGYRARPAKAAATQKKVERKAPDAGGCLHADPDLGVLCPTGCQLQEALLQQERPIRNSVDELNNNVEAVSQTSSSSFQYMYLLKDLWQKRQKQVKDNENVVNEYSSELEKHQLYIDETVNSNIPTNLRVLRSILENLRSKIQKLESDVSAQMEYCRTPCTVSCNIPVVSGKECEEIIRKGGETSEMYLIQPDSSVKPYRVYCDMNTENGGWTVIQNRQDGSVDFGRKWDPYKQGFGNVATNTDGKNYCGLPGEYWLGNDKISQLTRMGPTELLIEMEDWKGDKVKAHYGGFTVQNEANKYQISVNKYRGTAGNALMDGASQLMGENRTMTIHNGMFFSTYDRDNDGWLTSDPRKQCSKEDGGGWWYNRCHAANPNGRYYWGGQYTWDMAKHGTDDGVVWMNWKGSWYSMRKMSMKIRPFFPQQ
T1 sequence (P02679 27-437 isoform P02679-2 limits assumed): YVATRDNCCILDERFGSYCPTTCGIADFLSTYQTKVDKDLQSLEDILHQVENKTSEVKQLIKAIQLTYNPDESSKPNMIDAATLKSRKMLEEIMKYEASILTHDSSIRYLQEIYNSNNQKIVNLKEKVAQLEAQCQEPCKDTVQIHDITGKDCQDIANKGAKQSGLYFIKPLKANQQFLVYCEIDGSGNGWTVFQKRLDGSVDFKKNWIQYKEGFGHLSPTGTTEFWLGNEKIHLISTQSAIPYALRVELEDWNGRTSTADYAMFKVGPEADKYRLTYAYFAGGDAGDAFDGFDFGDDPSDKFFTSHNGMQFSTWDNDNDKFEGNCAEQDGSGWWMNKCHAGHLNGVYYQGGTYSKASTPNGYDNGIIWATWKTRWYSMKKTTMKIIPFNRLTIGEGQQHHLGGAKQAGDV
Procedure: The viscoelastic mechanical properties of fibrin gels were characterized using oscillatory shear rheology on a Discovery Hybrid Rheometer 2 (TA Instruments; New Castle, DE) with a 20 mm cone-and-plate geometry at a 1° angle and a 20 mm stage. Inertia, friction, and rotational mapping calibrations were performed prior to each experiment. A Peltier temperature-controlled stage maintained 37° C. and a solvent trap was used to control evaporation during experiments lasting longer than 20 minutes. Gels were prepared by mixing specified concentrations of fibrinogen, dye, and thrombin on the stage. Immediately after combining, the geometry head was lowered to 500 μm (˜1-3 seconds) before beginning the first experiment. Gelation kinetics were monitored in time sweeps at 1% strain and 10 rad/s angular frequency. Strain sweeps were measured from 0.01-1000% strain at 1 Hz frequency. A frequency sweeps measured from 0.01-3 Hz at 1% strain was used to confirmed fibrin independence of frequency.
To determine the final polymerization time and resultant shear modulus, a final concentration of 40 mg/mL fibrinogen, 33 U/mL thrombin, and 0.12% w/v dye was used to simulate fibrin scaffold parameters described elsewhere (see, e.g., Gandhi et al., 2018 Acta Biomater., 67:134-46). A time sweep was performed for 2 hours, and the strain sweep was measured following the time sweep to confirm final polymerization had occurred. The shear modulus was determined by averaging values within the linear region of the strain sweep (between 0.01% and 0.5% strain). A 95% confidence interval was defined for the final shear modulus and the lower range value was used as the threshold to determine the final polymerization time.
With confirming that both TB and EB, but not PEG, cause a substantial increase in gelation time, polymerization time was measured. The polymerization time is the total time for the hydrogel to fully form with no remaining soluble fibrin monomer. Functionally, this is defined as the point at which the shear modulus no longer changes. Quantitatively, this is defined at the point at which the g′ reaches its maximum and plateaus over time.
To test if the inclusion of TB and EB would alter the polymerization time, the previous rheometry setup was used over a longer range of time. Unfortunately, evaporative effects were detected as early as 2 hours. […] The surface was sticky, and the presence of non-cross-linked fibrin was evident. To measure polymerization time reliably, the fibrinogen and thrombin concentrations were increased. A 40 mg/mL fibrinogen and 33 U/mL thrombin final concentration is capable of fully polymerizing within 2 hours (see, e.g., Gandhi et al., Acta Biomater., 67:134-46 (2018)). As such, the rheometry experiment were repeated at these concentrations. A final concentration of 0.12% w/v for TB, EB and PEG was used.
Both PBS and PEG groups show g′ values greater than g″ values at the first detectable time point (12 seconds), showing that both groups had already past the initial gelation time. TB and EB show a delay in gelation but appear to quickly approach the PBS and PEG groups. Near the 1000 sec mark, all four groups appear to show a similar growth of g′ overtime. A strain sweep was measured at the end of the time sweep to confirm that the gel had completed polymerization within the 2 hour time frame. Shear modulus values from the linear portion of the strain sweep were verified with rheological data described elsewhere (see, e.g., Wedgwood et al., Macromolecular Symposia, 334:117-25 (2013); and Moreno-Arotzena et al., Materials (Basel), 8:1636-51 (2015)), and used to determine the final gel shear modulus. Using this shear modulus value, the polymerization time for each sample was calculated. The polymerization times for PBS, TB, EB, and PEG groups were 97.0±14.9, 94.6±8.3, 106.2±10.7, 93.8±17.0 minutes (n=3, p=0.654) (FIG. 8B).

[2] = Solubility point in citrate buffer; assay type: physicochemical; conditions: aqueous buffer; 1× citrate buffer (20 mM sodium citrate, 100 mM sodium chloride pH 7.4)

SMILES	gelation time [1]	polymerization time [1]	final shear modulus (g′) [1]	solubility [2]
Cc1cc(-c2ccc(/N=N/c3ccc4c(S(=O)(=O)O)cc(S(=O)(=O)O)c(N)c4c3O)c(C)c2)ccc1/N=N/c1ccc2c(S(=O)(=O)O)cc(S(=O)(=O)O)c(N)c2c1O [EB, Evans Blue]	89.6 ± 17.9 s	106.2 ± 10.7 min	2077±441 Pa	–
Cc1cc(-c2ccc(/N=N/c3c(S(=O)(=O)O)cc4cc(S(=O)(=O)O)cc(N)c4c3O)c(C)c2)ccc1/N=N/c1c(S(=O)(=O)O)cc2cc(S(=O)(=O)O)cc(N)c2c1O [TB, Trypan Blue]	42.4 ± 19.4 s	94.6 ± 8.3 min	2197±221 Pa	4.58 mM (≈ 4000 µg/mL)

From patent US20230414826A1, “FIBRIN HYDROGELS” (Mayo Foundation for Medical Education and Research, priority 2020, published 2023)
